Test systems include BT-549 breast; SK-MEL-5 melanoma; UACC-257 melanoma; HCT-116 colon; RPMI-8226 leukemia; EKVX NSCLC; MDA-N; RXF 393 renal; A549 NSCLC; HOP-92 NSCLC; NCI-H23 lung; KM12 colon; MOLT-4 leukemia; SK-OV-3 ovarian; HOP-62 NSCLC; COLO 205 colon; MDA-MB-231 breast; CAKI-1 renal; MALME-3M melanoma.
Assay in all cases: NCI tumour cell line growth inhibition, 48 h

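Where inhibition never reached the appropriate level, the endpoint shown equals the highest concentration tested. Otherwise, values were interpolated linearly from a five-concentration, 48-hour dose response in 96-well plates. TGI denotes the concentration required for complete inhibition of growth.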

Turning to `O=c1[nH]c(=O)n(C2CC(O)C(CO)O2)cc1C1=NC1` (stereo not drawn), the TGI with BT-549 breast, with SK-MEL-5 melanoma, in the experiment on UACC-257 melanoma, in the experiment on HCT-116 colon, in the experiment on RPMI-8226 leukemia and with EKVX NSCLC was greater than 100 µM in each case. The TGI in the experiment on MDA-N, in the experiment on RXF 393 renal, in the experiment on A549 NSCLC, in the experiment with HOP-92 NSCLC, with NCI-H23 lung and with KM12 colon was greater than 100 µM each time. Further, the TGI in the experiment with MOLT-4 leukemia, in the experiment on SK-OV-3 ovarian, in the experiment on HOP-62 NSCLC, with COLO 205 colon and in the experiment with MDA-MB-231 breast was greater than 100 µM each time.

On to `CCCCNC(=S)Nc1nc(C(=O)NNC(=S)NC2CCCCC2)cs1`, for which the TGI with CAKI-1 renal, in the experiment on BT-549 breast, in the experiment on SK-MEL-5 melanoma, in the experiment on UACC-257 melanoma, in the experiment with HCT-116 colon and with RPMI-8226 leukemia was greater than 100 µM each time. Besides, the TGI with EKVX NSCLC, in the experiment with MDA-N, in the experiment with A549 NSCLC, in the experiment with MALME-3M melanoma, in the experiment on HOP-92 NSCLC and in the experiment with NCI-H23 lung was greater than 100 µM each time. Besides, the TGI in the experiment with KM12 colon, in the experiment with SK-OV-3 ovarian, in the experiment with HOP-62 NSCLC, in the experiment with COLO 205 colon and in the experiment on MDA-MB-231 breast was greater than 100 µM in each case.

For `CCOC(=O)C1OC(C2(C)OC3(OC4(C=CC3O)OC(C(C)C(=O)C(C)C(O)C(C)CC(C)c3c(Cl)cc(C)c(O)c3C(=O)O)C(C)CC4C)C(C)C2OC)CC1O` (stereo not drawn), the TGI is 10.4 µM with CAKI-1 renal; 17.2 µM in the experiment with BT-549 breast; 5.59 µM in the experiment with SK-MEL-5 melanoma; 8.54 µM in the experiment on UACC-257 melanoma; 3.75 µM with HCT-116 colon; greater than 14.7 µM in the experiment on RPMI-8226 leukemia. Also, the TGI with EKVX NSCLC worked out at 5.02 µM; with MDA-N, 4.76 µM; with A549 NSCLC, 7.27 µM; in the experiment on MALME-3M melanoma, 1.81 µM; in the experiment on HOP-92 NSCLC, 5.77 µM; in the experiment with NCI-H23 lung, 5.77 µM. Further, the TGI with KM12 colon stood at 6.41 µM; with SK-OV-3 ovarian it was 3.26 µM; in the experiment with HOP-62 NSCLC, 0.483 µM; in the experiment on COLO 205 colon, 2.08 µM; with MDA-MB-231 breast it was 2.96 µM.

`CN1C(=O)[C@@H]2[C@@H]3c4ccccc4N(S(=O)(=O)C(F)(F)F)[C@@H]3c3[nH]c4ccccc4c3[C@@H]2C1=O`: the TGI in the experiment with CAKI-1 renal, in the experiment with BT-549 breast, in the experiment with SK-MEL-5 melanoma, in the experiment with UACC-257 melanoma, in the experiment with HCT-116 colon and with RPMI-8226 leukemia was greater than 100 µM each time. Further, the TGI with EKVX NSCLC is greater than 100 µM; in the experiment on MDA-N it was greater than 100 µM; with RXF 393 renal, greater than 100 µM; with A549 NSCLC it was greater than 100 µM; with HOP-92 NSCLC, 35.4 µM; in the experiment on NCI-H23 lung it was greater than 100 µM. Besides, the TGI was 47 µM in the experiment with MOLT-4 leukemia; greater than 100 µM with SK-OV-3 ovarian; greater than 100 µM with HOP-62 NSCLC; greater than 100 µM in the experiment on COLO 205 colon; greater than 100 µM in the experiment with MDA-MB-231 breast.

On to `COC(=O)C1CCC(=O)N1C(c1ccc(OC)cc1)c1ccc(OC)cc1` (stereo not drawn), for which the TGI with CAKI-1 renal, in the experiment on BT-549 breast, in the experiment on SK-MEL-5 melanoma, in the experiment with UACC-257 melanoma, with HCT-116 colon and in the experiment with RPMI-8226 leukemia was greater than 100 µM in each case. Besides, the TGI in the experiment with EKVX NSCLC, with MDA-N, in the experiment with A549 NSCLC, in the experiment with MALME-3M melanoma, with HOP-92 NSCLC and in the experiment with NCI-H23 lung was greater than 100 µM in each case. For the same compound, the TGI in the experiment with KM12 colon, with MOLT-4 leukemia, with SK-OV-3 ovarian, in the experiment with HOP-62 NSCLC, in the experiment on COLO 205 colon and in the experiment on MDA-MB-231 breast was greater than 100 µM throughout.

With `O=C1CCCC/C1=C\c1ccc(Br)cc1`, the TGI with CAKI-1 renal is 32.1 µM; with BT-549 breast it was 28.7 µM; with SK-MEL-5 melanoma, 44.5 µM; with UACC-257 melanoma, 70.3 µM; in the experiment with HCT-116 colon, 31.6 µM; with RPMI-8226 leukemia, 57.3 µM. The TGI came out at 62.8 µM in the experiment on EKVX NSCLC; 38.3 µM in the experiment with MDA-N; 67.7 µM in the experiment with A549 NSCLC; 21.5 µM with MALME-3M melanoma; 35.1 µM with HOP-92 NSCLC; 33.2 µM with NCI-H23 lung. The TGI was found to be 5.83 µM in the experiment with KM12 colon; 6.24 µM with MOLT-4 leukemia; 44.5 µM with SK-OV-3 ovarian; 42.8 µM with HOP-62 NSCLC; 32.8 µM in the experiment with COLO 205 colon; 37.7 µM in the experiment on MDA-MB-231 breast.

Consider `O=C(/C=C/c1ccc(/C=C/C(=O)c2ccc(O)cc2)cc1)c1ccc(O)cc1`, for which the TGI in the experiment on CAKI-1 renal, in the experiment on BT-549 breast, in the experiment with SK-MEL-5 melanoma, in the experiment with UACC-257 melanoma, with HCT-116 colon and in the experiment on RPMI-8226 leukemia was greater than 100 µM in each case. Further, the TGI with EKVX NSCLC, with MDA-N, with RXF 393 renal, in the experiment on A549 NSCLC, with HOP-92 NSCLC and with NCI-H23 lung was greater than 100 µM in each case. Besides, the TGI in the experiment with KM12 colon, with MOLT-4 leukemia, with HOP-62 NSCLC, with COLO 205 colon and in the experiment with MDA-MB-231 breast was greater than 100 µM in each case.

Turning to `O=C1CCC(=O)N1n1c(Cc2ccc(Cl)cc2)n[nH]c1=O`, the TGI in the experiment with CAKI-1 renal, in the experiment with BT-549 breast, in the experiment on SK-MEL-5 melanoma, in the experiment on UACC-257 melanoma, with HCT-116 colon and in the experiment on RPMI-8226 leukemia was greater than 100 µM in each case. Besides, the TGI with EKVX NSCLC, in the experiment with MDA-N, in the experiment with A549 NSCLC, with MALME-3M melanoma, in the experiment with HOP-92 NSCLC and in the experiment on NCI-H23 lung was greater than 100 µM each time. The TGI in the experiment on KM12 colon, with MOLT-4 leukemia, in the experiment on SK-OV-3 ovarian, in the experiment on COLO 205 colon and with MDA-MB-231 breast was greater than 100 µM throughout.

Turning to `CSCCCNC(=O)c1csc(-c2csc(C(CNC(=O)OC(C)(C)C)CNC(=O)OC(C)(C)C)n2)n1`, the TGI is greater than 100 µM in the experiment with CAKI-1 renal; greater than 100 µM with BT-549 breast; greater than 100 µM in the experiment with SK-MEL-5 melanoma; greater than 100 µM in the experiment on UACC-257 melanoma; greater than 100 µM with HCT-116 colon; 41.7 µM in the experiment with RPMI-8226 leukemia. The TGI in the experiment on EKVX NSCLC, in the experiment on MDA-N, in the experiment on RXF 393 renal, with HOP-92 NSCLC, with NCI-H23 lung and in the experiment on KM12 colon was greater than 100 µM each time. Besides, the TGI is 43.9 µM in the experiment on MOLT-4 leukemia; greater than 100 µM with SK-OV-3 ovarian; greater than 100 µM in the experiment on HOP-62 NSCLC; greater than 100 µM with COLO 205 colon; greater than 100 µM with MDA-MB-231 breast.

With `N#C/C(=C\NC(=S)c1ccncc1)c1nc2ccccc2s1`, the TGI in the experiment with CAKI-1 renal, with BT-549 breast, in the experiment with SK-MEL-5 melanoma, with UACC-257 melanoma, in the experiment on HCT-116 colon and in the experiment with RPMI-8226 leukemia was greater than 100 µM each time. Also, the TGI in the experiment on EKVX NSCLC, with MDA-N, in the experiment on RXF 393 renal, in the experiment with A549 NSCLC, in the experiment on HOP-92 NSCLC and in the experiment with NCI-H23 lung was greater than 100 µM throughout. Besides, the TGI with KM12 colon, in the experiment with MOLT-4 leukemia, with SK-OV-3 ovarian, in the experiment with HOP-62 NSCLC, with COLO 205 colon and with MDA-MB-231 breast was greater than 100 µM each time.

As to `O=c1oc2cc(O)ccc2c(O)c1C(c1cccnc1)c1c(O)c2ccc(O)cc2oc1=O`, the TGI in the experiment with CAKI-1 renal, with BT-549 breast, with SK-MEL-5 melanoma, with UACC-257 melanoma, with HCT-116 colon and with RPMI-8226 leukemia was greater than 100 µM each time. Besides, the TGI with EKVX NSCLC, with MDA-N, with RXF 393 renal, in the experiment on A549 NSCLC, in the experiment on HOP-92 NSCLC and with NCI-H23 lung was greater than 100 µM throughout. The TGI with KM12 colon, with MOLT-4 leukemia, with SK-OV-3 ovarian, with HOP-62 NSCLC, in the experiment with COLO 205 colon and in the experiment on MDA-MB-231 breast was greater than 100 µM in each case.

`CCOc1ccc(/C=N/[N+](C)(C)C)cc1OCC`: the TGI with CAKI-1 renal, with BT-549 breast, with SK-MEL-5 melanoma, in the experiment with UACC-257 melanoma, in the experiment with HCT-116 colon and with RPMI-8226 leukemia was greater than 10 µM throughout. Further, the TGI in the experiment with MDA-N, with A549 NSCLC, in the experiment on MALME-3M melanoma, in the experiment with HOP-92 NSCLC, with NCI-H23 lung and with KM12 colon was greater than 10 µM each time. The TGI in the experiment on MOLT-4 leukemia, in the experiment with SK-OV-3 ovarian, in the experiment on HOP-62 NSCLC, in the experiment on COLO 205 colon and in the experiment with MDA-MB-231 breast was greater than 10 µM throughout.

(Values after PubChem BioAssay (NCI).)
